Patent publication US20250222065A1, “CYCLIC POLYPEPTIDE FOR THE TREATMENT OF PHA TYPE 1B” (priority 2015, published 2025)

How the values were obtained:
[1] = test system: WT αβγ-hENaC, WT δβγ-hENaC or mutant hENaC; assay: Amiloride block of whole-cell sodium current in transfected HEK-293 cells; format: cell-based, human; details: amiloride 10 μM, HEK-293 whole-cell sodium current
Procedure: Concentration-response curves were plotted, and EC50 values and Hill coefficients were determined using Microcal Origin 7.0. […] Finally, amiloride was added to enable estimation of the peptide-induced increase in amiloride-sensitive Na+ current. […] Amiloride was used at 10 μM for WT αβγ-hENaC, WT δβγ-hENaC or mutant hENaC; these concentrations yielded greater than 95% hENaC inhibition. Only cells with clear amiloride response were included in data analysis.

αβγV543fs-hENaC = assay: Whole cell patch clamp, HEK-293 cells expressing PHA type IB frameshift mutant αβγV543fs-hENaC; format: cell-based, human; details: HEK-293, peptide concentration 220 nM, mean ± SE, n = 5; no peptide: loss-of-function; Table 2
Procedure: The ENaC-activating properties of cyclic peptides are tested electrophysiologically in vitro using whole cell and […] patch clamp techniques Hazemi et al, 2010; Tzotzos et al, 2013; Shabbir et al, 2013). A whole call patch clamp assay is used to measure the induced amiloride-sensitive Na+ current, calculate concentration-response curves and thus estimate the potency measured as effective concentration at half maximum response (EC50), for cyclic peptides.
In addition, mutant delta ENaC subunits were also constructed by site-directed mutagenesis, containing homologous mutations to those observed in conserved positions in the other three ENaC subunits.
Point mutations were introduced into cDNA encoding alpha, beta, gamma and delta ENaC using a commercially available site-directed mutagenesis kit (QuikChange Lightning Site-Directed Mutagenesis Kit; Agilent Technologies). […]
(§1) Whole cell currents were recorded as previously described (Shabbir et al, 2013).
(§2) Data represent the mean ±S.E. unless otherwise stated; experiments were performed on three to seven batches of independently transfected cells in the HEK-293 heterologous expression system. Statistical significance between different groups was determined using an unpaired, two-tailed Student's t test using GraphPad Prism version 3.02 (GraphPad Software, San Diego). […]

[2] = test system: PHA type IB mutant loss-of-function hENaC; assay: Whole cell patch clamp, HEK-293 cells expressing PHA type IB mutant hENaCs (overall conclusions); format: cell-based, human; details: whole cell electrophysiological assay, versus absence of peptide
Procedure: In addition, mutant delta ENaC subunits were also constructed by site-directed mutagenesis, containing homologous mutations to those observed in conserved positions in the other three ENaC subunits. […]
as §1
Concentration-response curves were plotted, and EC50 values and Hill coefficients were determined using Microcal Origin 7.0. […]
After GOhm-seal (GΩ-seal) formation, and an equilibration period of 5 min, sodium current was recorded at Eh from —80 to +80 mV in 20 mV increments held for 1 min at each Eh.
as §2

[3] = target: αβγV543fs-hENaC (human), P37088; assay: cell-based or functional assay
αβG37Sγ-hENaC = αβG37Sγ-hENaC (human, UniProt P37088 1-669; P51168 1-640; P51170 1-649); assay: cell-based or functional assay
αQ101Kβγ-hENaC = αQ101Kβγ-hENaC (human, UniProt P37088 1-669; P51168 1-640; P51170 1-649); assay: cell-based or functional assay

## N=C(N)NC(=O)c1nc(Cl)c(N)nc1N [Amiloride, amiloride]
[1]
  hENaC inhibition: greater than 95%

## Cyclo(4-aminobutanoic acid-GQRETPEGAEAKPWYD) (not fully specified; cyclized via 4-aminobutanoic acid) [AP318]
αβγV543fs-hENaC
  Inward current measured (amiloride-sensitive current): 177.7 ± 6.5 pA
[2]
  Amiloride-sensitive sodium ion current through PHA-1B mutants in the presence of peptide: significantly increased

B1: AP318, Cyclo(4-aminobutanoic acid-…) (peptide)
peptide: GQRETPEGAEAKPWYD
modifications: here or on the partner: N-terminal 4-aminobutanoic acid (GABA); cyclic: amide bond between the amino group of N-terminal 4-aminobutanoic acid and the side chain carboxyl group of the C-terminal aspartic acid
[3]
  Inward amiloride-sensitive current, whole cell patch clamp, HEK-293, peptide concentration 220 nM: 178 pA

B2: AP318, Cyclo(4-aminobutanoic acid-GQRETPEGAEAKPWYD) (peptide)
peptide: GQRETPEGAEAKPWYD
modifications: N-terminal 4-aminobutanoic acid (GABA); cyclic: amide bond between the amino group of N-terminal 4-aminobutanoic acid and the side chain carboxyl group of the C-terminal aspartic acid
αβG37Sγ-hENaC
  Inward amiloride-sensitive current, whole cell patch clamp, HEK-293, peptide concentration 220 nM: 192 pA
αQ101Kβγ-hENaC
  Inward amiloride-sensitive current, whole cell patch clamp, HEK-293, peptide concentration 220 nM: 177 pA
